Assay results published in ChEMBL document CHEMBL1146522, “Two new xanthone derivatives from the algicolous marine fungus Wardomyces anomalus” (2003).
The source made the active and inactive calls. The rule behind the calls is not given here.

Tests used:
[1] = Antioxidant activity assessed as inhibition of peroxidation of linolenic acid at 37 ug/mL by TBARS assay; type: functional
[2] = test system: Radical scavenging activity; experiment: Antioxidant activity assessed as DPPH radical scavenging activity at 50 ug/mL; type: functional
[3] = test system: Radical scavenging activity; experiment: Antioxidant activity assessed as DPPH radical scavenging activity at 25 ug/mL; type: functional
[4] = test system: Radical scavenging activity; experiment: Antioxidant activity assessed as DPPH radical scavenging activity at 100 ug/mL; type: functional
[5] = Antioxidant activity assessed as inhibition of peroxidation of linolenic acid at 7.4 ug/mL by TBARS assay; type: functional
[6] = test system: Radical scavenging activity; experiment: Antioxidant activity assessed as DPPH radical scavenging activity at 500 ug/mL; type: functional
[7] = test system: Mycotypha microspora; experiment: Antifungal activity against Mycotypha microspora 50 ug/disk by agar diffusion method; type: functional, organism-based
[8] = test system: Escherichia coli; experiment: Antibacterial activity against Escherichia coli 50 ug/disk by agar diffusion method; type: functional, organism-based
[9] = test system: Priestia megaterium; experiment: Antibacterial activity against Bacillus megaterium 50 ug/disk by agar diffusion method; type: functional
[10] = test system: Microbotryum violaceum; experiment: Antifungal activity against Microbotryum violaceum 50 ug/disk by agar diffusion method; type: functional
[11] = molecular target: Tyrosine-protein kinase Lck (Homo sapiens) (UniProt P06239); experiment: Inhibition of p56-LCK assessed as residual enzyme activity at 200 ug/mL
Tyrosine-protein kinase Lck (Homo sapiens), sequence (P06239 2-509 limits assumed): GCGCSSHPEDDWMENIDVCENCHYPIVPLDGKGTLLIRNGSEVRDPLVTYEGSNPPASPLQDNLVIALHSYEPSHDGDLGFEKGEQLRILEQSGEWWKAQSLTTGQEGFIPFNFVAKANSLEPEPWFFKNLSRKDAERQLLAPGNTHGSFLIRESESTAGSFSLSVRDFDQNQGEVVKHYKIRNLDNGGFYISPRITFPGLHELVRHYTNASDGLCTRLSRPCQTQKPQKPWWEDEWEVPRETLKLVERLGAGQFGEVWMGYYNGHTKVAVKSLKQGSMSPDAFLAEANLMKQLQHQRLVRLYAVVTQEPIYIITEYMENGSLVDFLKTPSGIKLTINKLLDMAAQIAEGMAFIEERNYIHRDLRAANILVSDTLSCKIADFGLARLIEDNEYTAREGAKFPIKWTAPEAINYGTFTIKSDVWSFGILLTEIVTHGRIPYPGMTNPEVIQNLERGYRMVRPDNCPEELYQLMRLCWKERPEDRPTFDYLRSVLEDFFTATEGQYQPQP

[12] = molecular target: Human immunodeficiency virus type 1 reverse transcriptase (Human immunodeficiency virus 1) (UniProt Q72547); experiment: Inhibition of HIV1 reverse transcriptase assessed as residual enzyme activity at 66 ug/mL
[13] = test system: [Chlorella] fusca; experiment: Antimicrobial activity against Chlorella fusca 50 ug/disk by agar diffusion method; type: functional, organism-based; conditions: Scenedesmus fuscus
[14] = test system: Aspergillus pseudoglaucus; experiment: Antifungal activity against Eurotium repens 50 ug/disk by agar diffusion method; type: functional

| Activity [11] [%] | Activity [12] [%] | Structure (SMILES) | inhibition [1] [%] | Activity [2] [%] | Activity [3] [%] | Activity [4] [%] | inhibition [5] [%] | Activity [6] [%] | Activity [7] | Activity [8] | Activity [9] | Activity [10] | Activity [13] | Activity [14] | inhibition zone (IZ) [10] [mm] | inhibition zone (IZ) [9] [mm] | inhibition zone (IZ) [14] [mm] |
| --- | --- | --- | --- | --- | --- | --- | --- | --- | --- | --- | --- | --- | --- | --- | --- | --- | --- |
| – | – | Cc1cc(C(C)(C)C)c(O)c(C(C)(C)C)c1 | 48.5 | 83.1 | 73.4 | 89.1 | 42.8 | 87.8 | – | – | – | – | – | – | – | – | – |
| 0 | 98.3 | O=C(O)c1ccc(CO)o1 | 7.4 | 53.4 | 30.7 | 87.7 | 2.6 | 97 | inactive | inactive | inactive | inactive | inactive | inactive | – | – | – |
| 0 | 82.2 | Cc1c(O)c(O)cc2oc3cc(O)cc(O)c3c(=O)c12 [ANOMALIN A] | 37 | 94.8 | 94.7 | 95.2 | 17 | 95.4 | – | inactive | inactive | – | inactive | – | 1 | – | – |
| 0 | 82.9 | Cc1cc(O)cc2oc3cc(O)cc(O)c3c(=O)c12 [NORLICHEXANTHONE] | – | 12.9 | 6.2 | 25.3 | -7.4 | 90.6 | – | – | – | – | inactive | – | – | 1 | 1 |
